Test results: patent US20220267479A1, “POLYIODIDE BINDING COMPOUNDS AND METHODS OF USE THEREOF” (North Carolina State University, priority 2019, published 2022)
Where “and” joins values, the source holds several entries; their conditions need not be identical. Identical values can stand only once. Marks after values point to notes of the source that are not given here.

Tests used:
Format in all cases: biochemical
[1] = system: β-glucosidase from almonds; assay: Indigogenic reaction with β-glucosidase from almonds
Description: With diverse glucosyl-indoxyl compounds in hand, we carried out a set of studies to examine indigoid-dye formation upon enzymatic cleavage of the glucosyl unit under physiological conditions. Altogether, 14 new (15, 16, 19-27, 30, 33, 41) and 2 known (1, 42) synthetic indoxyl-glucosides (lacking acetyl protecting groups) were examined in an effort to identify suitable combinations of substituents to support both bioconjugation and indigoid dye formation. In initial studies, β-glucosidase from almonds was employed to trigger indigoid dye formation (Table 1). Thus, a mixture of this enzyme (1 unit/mL) and an indoxyl β-glucoside (0.1 μmol, 1 mM) in acetate buffer (pH 5, containing 5% DMF) was incubated at 37° C. for 16-19 h. All indigoid dye was dissolved in each case for quantitative evaluation.
Reactions with β-glucosidase from almonds. An indoxyl compound in DMF (5 μL, 20 mM) and β-glucosidase from almonds in H2O (10 μL, 10 units/mL) were mixed with acetate buffer (85 μL, 50 mM, pH 5.0). The reaction mixture was incubated at 37° C. for 16-19 h and then allowed to cool to room temperature. DMF (300 μL for the reactions of 15, 16, 1, 19, 22, and 25; or 900 μL for the reactions of 42, 20, 21, 23, 24, 26, 27, 30, and 31, respectively) was added to dissolve any indigoid precipitate. The resulting solution was analyzed by absorption spectroscopy.

rat liver homogenate = assay: Indigoid-dye formation in rat liver homogenate; settings: indoxyl 1 mM, 5% DMF, 37° C., 24 h; ε = 1.27 × 10^4 M^-1 cm^-1
Protocol: Finally, indigoid-dye formation was carried out in rat liver homogenate (Table 1, rightmost column).
Reactions in rat liver homogenate. An indoxyl compound in DMF (5 μL, 20 mM) was mixed with rat liver homogenate (95 μL). The reaction mixture was incubated at 37° C. for 24 h. After allowing to cool to room temperature, the reaction mixture was diluted with DMF (900 μL). The mixture was heated at 70° C. for 2 min and then centrifuged for 2 min. The supernatant was separated from any precipitate. This extraction procedure was repeated two or three times with DMF (100-500 μL). The combined supernatant (1500-1800 μL) was analyzed by absorption spectroscopy.

[2] = molecular target: T1, β-glucosidase from Agrobacterium (Agrobacterium sp., UniProt P12614); assay: Indigogenic reaction with β-glucosidase from Agrobacterium
T1 construct: purchased Megazyme; host or cells: recombinant
T1 sequence (P12614 1-459): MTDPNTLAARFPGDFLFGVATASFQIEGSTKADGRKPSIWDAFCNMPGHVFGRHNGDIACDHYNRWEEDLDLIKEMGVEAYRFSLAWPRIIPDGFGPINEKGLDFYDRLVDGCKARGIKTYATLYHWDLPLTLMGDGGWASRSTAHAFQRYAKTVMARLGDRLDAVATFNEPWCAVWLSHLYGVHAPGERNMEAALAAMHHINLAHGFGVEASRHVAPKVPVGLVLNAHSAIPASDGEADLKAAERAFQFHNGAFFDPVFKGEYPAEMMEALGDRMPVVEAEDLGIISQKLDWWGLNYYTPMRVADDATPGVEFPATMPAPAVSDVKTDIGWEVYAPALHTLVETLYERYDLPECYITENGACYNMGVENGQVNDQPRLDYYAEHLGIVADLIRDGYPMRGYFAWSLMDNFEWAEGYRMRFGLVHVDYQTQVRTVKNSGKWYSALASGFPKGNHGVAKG
Protocol: Next, the β-glucosidase from Agrobacterium sp. was investigated as the trigger enzyme for indigoid dye formation. […]
Reactions with β-glucosidase from Agrobacterium. An indoxyl compound in DMF (2 μL, 5 mM) and β-glucosidase from Agrobacterium in 10 mM phosphate buffer [2 μL, 10 μM, pH 7.0, containing 50 mM NaCl and 0.6 M (NH4)2SO4] were mixed with 50 mM phosphate buffer (96 μL, pH 7.0). The reaction mixture was incubated at 37° C. for 2 h and then centrifuged for 3 min. Any precipitate was separated from the supernatant and dissolved in DMF (200 μL). The resulting solution was analyzed by absorption spectroscopy. The experiment was repeated three times.

[3] = molecular target: T1, β-glucosidase from Agrobacterium; assay: Enzyme-triggered oligomerization of bis(indoxyl-glucoside) 46
Protocol: Oligomerization of 46 was carried out by treatment with β-glucosidase from Agrobacterium (200 nM) in 10 mM phosphate buffer (pH 7) at 37° C. for 2-4 h (Scheme 9). Precipitation occurred during the reaction. After centrifugation, the precipitate was separated from the supernatant, washed with H2O, and dried to afford a blue solid.
The efficacy of the indigogenic oligomerization was examined under a variety of conditions. As shown in entries 1-4 in Table 2, the yield of indigoid dye in the supernatant versus precipitate reversed as the concentration of 46 was decreased from 300 to 10 μM, although the total yields were in the range 17-29%. While the reactions in entries 1-4 were carried out in phosphate buffer containing NaCl (0.05 M), those of entries 5 and 6 (with 300 and 50 μM of 46, respectively) were conducted in NaCl-free phosphate buffer. The use of NaCl-free phosphate buffer facilitated extraction of the indigoid dye in the supernatant for analysis.

[4] = indoxyl 100 μM, enzyme 200 nM, 0.05 M phosphate buffer pH 7.0, 2% DMF, 37° C., 2 h, n=3, ε = 1.27 × 10^4 M^-1 cm^-1
[5] = as E4 but ε = 2.6 × 10^4 M^-1 cm^-1 measured for 43
[6] = indoxyl 1 mM, enzyme 1 unit/mL, acetate buffer pH 5, 5% DMF, 37° C., 16-19 h, ε = 1.27 × 10^4 M^-1 cm^-1 (measured for 4)
[7] = entry 1: [46] 300 μM, 2 h, phosphate buffer containing NaCl (0.05M)
[8] = entry 2: [46] 100 μM, 3 h, phosphate buffer containing NaCl (0.05M)
[9] = entry 3: [46] 50 μM, 2 h, phosphate buffer containing NaCl (0.05M), repeated three times
[10] = entry 4: [46] 10 μM, 4 h, phosphate buffer containing NaCl (0.05M)
[11] = entry 5: [46] 300 μM, 3 h, NaCl-free phosphate buffer containing DMF (0.1-0.6%)
[12] = entry 6: [46] 50 μM, 3 h, NaCl-free phosphate buffer containing DMF (0.1-0.6%)

5-bromo-4-chloroindoxyl β-glucoside [Indoxyl 42, reference compound]
Yield (%) β-glucosidase from almonds ([1]; as E1 but ε = 2.00 × 10^4 M^-1 cm^-1 reported for 5,5′-dibromo-4,4′-dichloroindigo): 74% and 74^e % | Yield (%) rat liver homogenate (rat liver homogenate): 65% | Yield (%) β-glucosidase from Agrobacterium ([2]; as E4 but ε = 2.00 × 10^4 M^-1 cm^-1 reported for 5,5′-dibromo-4,4′-dichloroindigo): 116% and 116 ± 8^e %

COc1nc(Oc2ccc3[nH]cc(O[C@@H]4O[C@H](CO)[C@@H](O)[C@H](O)[C@H]4O)c3c2Br)nc(N2CCOCC2)n1 [Indoxyl 20, 4-Bromo-5-[(4-methoxy-6-morpholino-1,3,5-triazin-2-yl)oxy]-1H-indole-3-yl β-D-glucopyranoside]
Yield (%) rat liver homogenate (rat liver homogenate): <5% | Yield (%) β-glucosidase from Agrobacterium [2, 4]: 150 ± 3%

COc1nc(Oc2c(Br)cc3[nH]cc(O[C@@H]4O[C@H](CO)[C@@H](O)[C@H](O)[C@H]4O)c3c2Br)nc(N2CCOCC2)n1 [Indoxyl 21, 4,6-Dibromo-5-[(4-methoxy-6-morpholino-1,3,5-triazin-2-yl)oxy]-1H-indole-3-yl β-D-glucopyranoside]
Yield (%) rat liver homogenate (rat liver homogenate): <5% | Yield (%) β-glucosidase from Agrobacterium [2, 5]: 31 ± 2% | Yield (%) β-glucosidase from Agrobacterium [2, 4]: 63 ± 4%

COC(=O)COc1ccc2[nH]cc(O[C@@H]3O[C@H](CO)[C@@H](O)[C@H](O)[C@H]3O)c2c1 [Indoxyl 22, 5-(Methoxycarbonyl)methoxy-1H-indol-3-yl β-D-glucopyranoside]
Yield (%) β-glucosidase from almonds [1, 6]: <1% | Yield (%) rat liver homogenate (rat liver homogenate): <5% | Yield (%) β-glucosidase from Agrobacterium [2, 4]: 30 ± 6%

COC(=O)COc1ccc2[nH]cc(O[C@@H]3O[C@H](CO)[C@@H](O)[C@H](O)[C@H]3O)c2c1Br [Indoxyl 23, 4-Bromo-5-(methoxycarbonyl)methoxy-1H-indol-3-yl β-D-glucopyranoside]
Yield (%) β-glucosidase from almonds [1, 6]: 68% | Yield (%) rat liver homogenate (rat liver homogenate): <5% | Yield (%) β-glucosidase from Agrobacterium [2, 4]: 84 ± 4%

COC(=O)COc1c(Br)cc2[nH]cc(O[C@@H]3O[C@H](CO)[C@@H](O)[C@H](O)[C@H]3O)c2c1Br [Indoxyl 24, 4,6-Dibromo-5-(methoxycarbonyl)methoxy-1H-indol-3-yl β-D-glucopyranoside]
Yield (%) β-glucosidase from almonds ([1]; as E1 but ε = 2.6 × 10^4 M^-1 cm^-1 measured for 43): 59% | Yield (%) β-glucosidase from almonds [1, 6]: 122% | Yield (%) rat liver homogenate (rat liver homogenate): <5% | Yield (%) β-glucosidase from Agrobacterium [2, 5]: 102 ± 3% | Yield (%) β-glucosidase from Agrobacterium [2, 4]: 209 ± 6%

C#CCOc1ccc2[nH]cc(O[C@@H]3O[C@H](CO)[C@@H](O)[C@H](O)[C@H]3O)c2c1 [Indoxyl 25, 5-Propargyloxy-1H-indol-3-yl β-D-glucopyranoside]
Yield (%) β-glucosidase from almonds [1, 6]: <5% | Yield (%) rat liver homogenate (rat liver homogenate): 11% | Yield (%) β-glucosidase from Agrobacterium [2, 4]: 37 ± 2%

OC[C@H]1O[C@@H](Oc2c[nH]c3cc(Br)c(OCC4[C@H]5CCC#CCC[C@@H]45)c(Br)c23)[C@H](O)[C@@H](O)[C@@H]1O (stereo partly drawn) [Indoxyl 30, 5-{[(1R,8S,9s)-Bicyclo[6.1.0]non-4-yn-9-yl]methoxy}-4,6-dibromo-1H-indole-3-yl β-D-glucopyranoside]
Yield (%) β-glucosidase from Agrobacterium [2, 5]: 10% and 10 ± 0.4% | Yield (%) β-glucosidase from Agrobacterium [2, 4]: 21 ± 1%

O=S(=O)([O-])CCC[N+]1(CCCO)CCN(c2nc(OCCOCCOCCOc3c(Br)cc4[nH]cc(O[C@@H]5O[C@H](CO)[C@@H](O)[C@H](O)[C@H]5O)c4c3Br)nc(OCCOCCOCCOc3c(Br)cc4[nH]cc(O[C@@H]5O[C@H](CO)[C@@H](O)[C@H](O)[C@H]5O)c4c3Br)n2)CC1 [Indoxyl 46]
Total yields of indigoid dye (supernatant plus precipitate) ([3]; entries 1-4, [46] 300 to 10 μM): 17-29% | Yield of indigoid dye (%) precipitate [3, 7]: 11% | Yield of indigoid dye (%) supernatant [3, 7]: 6% | Yield of indigoid dye (%) precipitate [3, 8]: 14% | Yield of indigoid dye (%) supernatant [3, 8]: 10% | Yield of indigoid dye (%) precipitate [3, 9]: 16 ± 0.6^c % | Yield of indigoid dye (%) supernatant [3, 9]: 13 ± 0.4^c % | Yield of indigoid dye (%) precipitate [3, 10]: 6% | Yield of indigoid dye (%) supernatant [3, 10]: 22% | Yield of indigoid dye (%) precipitate [3, 11]: 13% | Yield of indigoid dye (%) supernatant [3, 11]: 13% | Yield of indigoid dye (%) precipitate [3, 12]: 8% | Yield of indigoid dye (%) supernatant [3, 12]: 19%
